This note sets out measurements from PubChem BioAssay AID2060505 (Molecular Pharmacology Branch, DTP, NCI, 2025).

This assay concerns 633275-114-R-J1-PDC complex spheroids, viability. As to the kind of experiment: Anticancer human tumor 633275-114-R-J1-PDC patient-derived endometrial adenocarcinoma cell line growth inhibition [GQUAD]. As to conditions: for viability, T/C: stronger effect = lower value; for IC50: curve of compound. From the text:
DNA G-quadruplex Stabilizer Agents in Combinations in Complex Spheroids
A high-throughput screen of multi-cell type tumor spheroids was designed to identify active combinations of DNA G-quadruplex stabilizer agents and targeted small molecules. Complex spheroids include a stromal component modeled by human endothelial cells (HUVEC) and fibroblasts modeled by human mesenchymal stem cells (MSCs). The concentration ranges selected for each drug and investigational agent were based upon clinically achievable concentrations if the clinical Cmax of the agent was known.
Compounds. The drugs and investigational agents: pidnarulex (CX-5461; NSC782164), APTO-253 (NSC789042), BRACO-19 (NSC847499), peposertib (NSC802822), ceralasertib (NSC780249), elimusertib (NSC800525), camonsertib (NSC841442), AZD-1390 (NSC803789), olaparib (NSC753686), talazoparib (NSC767125), ART-558 (NSC835418), sotorasib (NSC818433), MRTX-1133 (NSC836407), SN-38 (NSC673596), topotecan (NSC609699), etoposide (NSC141540), doxorubicin (NSC123127), gemcitabine (NSC613327), 5-fluorouracil (NSC19893), paclitaxel (NSC125973), vemurafenib (NSC761431), panobinostat (NSC761190), R-306465 (JNJ-16241199; NSC773264), adavosertib (NSC754352), TP-3654 (NSC805149), carboplatin (NSC241240), KSQ-4279 (NSC840948), and staurosporine (NSC755774) were obtained from the National Cancer Institute (NCI) Developmental Therapeutics Program Chemical Repository (34). The FDA-approved anticancer drug set is available from the NCI Developmental Therapeutics Program. […] The stock solutions were prepared in dimethyl sulfoxide (DMSO, Sigma-Aldrich, St. Louis, MO, cat. D2650) at 800-fold the tested concentration and stored at -70 degrees C prior to their use. All drugs and investigational agents were tested over a range starting from a high concentration at or near the clinical Cmax and decreasing in half-log increments. If the clinical Cmax for an agent had not been determined, the highest concentration tested was 10 microM.
2.3 Cell Culture. All cells were maintained in an incubator at 37 degrees C and 5% CO2 with 95% humidity. The PDC lines were cultured according to standard operating procedures established by the NCI PDMR. All PDCs were thawed and cultured in Matrigel-coated flasks prepared with a working solution of 1X Ham's F-12 nutrient mix, without supplementation (Invitrogen, cat. 11765054), 100 U/mL penicillin-streptomycin (Invitrogen, cat. 15140122), and 2.5% Matrigel (Corning Inc., cat. 354248) for the first three passages. The 857933-349-R-J2-PDC line was cultured in 6C/Colon 1B media, which includes advanced DMEM/F-12 (Thermo Fisher Scientific, cat. 12634028), 10 mM HEPES (Thermo Fisher Scientific, cat. 15630080), 1X GlutaMAX supplement (Thermo Fisher Scientific, cat. 35050061), 0.1 mg/mL primocin (InvivoGen, cat. ant-pm-2), 10% defined fetal bovine serum, heat inactivated (HyClone Laboratories Inc., cat. SH30070.03HI), 50% L-WRN conditioned media (ATCC, cat. CRL-3276), 1.25 mM N-Acetyl-L-cysteine (Sigma-Aldrich, cat. A9165), 10 mM nicotinamide (Sigma-Aldrich, cat. N0636), 1X B-27 supplement (Thermo Fisher Scientific, cat. 17504044), 1X N-2 supplement (Thermo Fisher Scientific, cat. 17502048), 10 microM Y-27632 dihydrochloride (Tocris Bioscience, cat. 1254), and 50 ng/mL human EGF recombinant protein (Thermo Fisher Scientific, cat. PHG0311). The 485176-168-R4-J1-PDC line was cultured in Panc media, which includes all 6C/Colon 1B media components plus 100 ng/mL human FGF-10 (Thermo Fisher Scientific, cat. 100-26), 500 nM SB-431542 (Selleckchem, cat. S1067), and gastrin (Tocris, cat. 3006).
[…]

Values joined by “and” are separate entries in the source; they are usually repeats but may differ in a detail not shown here. Equal values may be shown once.
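Further: spheroids exposed to the agents for seven days.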
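Wherever viability, T/C is given: percent of DMSO vehicle control viability which is 100%.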

The viability, T/C is the ratio of treated to control. A word on the IC50: it is the point on the concentration scale where inhibition reaches its midpoint. Consider `Cn1ncnc1[C@H]1c2n[nH]c(=O)c3cc(F)cc(c23)N[C@@H]1c1ccc(F)cc1`, for which the IC50 is greater than 316 nM. Moreover, for the setting “compound 0.000999 µM”, the viability, T/C was 101% and 100% and 95.7%. Moreover, under “compound 0.00316 µM”, the viability, T/C is 97.5% and 87.7% and 88.7%. For the same compound, the viability, T/C (compound 0.00999 µM) is 87.6% and 88.2% and 102%. For the same compound, under “compound 0.0316 µM”, the viability, T/C is 79% (2×) and 83.2%. Besides, the viability, T/C (compound 0.0999 µM) was 69.5% and 71% and 65.5%. For the setting “compound 0.316 µM”, the viability, T/C was 56.5% and 57.2% and 61.5%.

Regarding `CC(C)(O)C1CCC(Nc2ccc3ncc(-c4cccc(C(F)(F)F)c4)n3n2)CC1` (stereo not drawn), the IC50 is 1810 nM and 2010 nM and 1640 nM. For the same compound, the viability, T/C (compound 0.0316 µM) was 103% and 106% (2×). For the setting “compound 0.1 µM”, the viability, T/C is 94.8% and 101% and 89.9%. The viability, T/C (compound 0.316 µM) is 95.2% and 87.9% and 105%. Moreover, the viability, T/C (compound 1 µM) is 68.7% and 71.4% and 61.6%. Moreover, the viability, T/C (compound 3.16 µM) is 29.8% and 33.2% and 29.4%. For the same compound, the viability, T/C (compound 10 µM) is 35% and 33.7% and 39.8%.

Regarding `CC(=O)O[C@H]1C(=O)[C@@]2(C)[C@H]([C@H](OC(=O)c3ccccc3)[C@]3(O)C[C@H](OC(=O)[C@H](O)[C@@H](NC(=O)c4ccccc4)c4ccccc4)C(C)=C1C3(C)C)[C@]1(OC(C)=O)CO[C@@H]1C[C@@H]2O`, the IC50 is less than 31.6 nM. The viability, T/C (compound 0.0316 µM) was 47.5% and 49.6% and 46.9%. The viability, T/C (compound 0.1 µM) was 22.7% and 22.6% and 27.5%. Further, under “compound 0.316 µM”, the viability, T/C is 18.4% and 21% and 21.7%. In addition, the viability, T/C (compound 1 µM) is 20.4% and 20% and 23.4%. In addition, the viability, T/C (compound 3.16 µM) is 18.8% and 21.8% and 21.4%. In addition, the viability, T/C (compound 10 µM) was 19.4% and 21.5% and 20.4%.

Take `Cc1cccc(N(C)C(=O)C2C(O)CCN2c2nc(C)cc(C(F)(F)F)c2C#N)c1` (stereo not drawn): the IC50 was greater than 10000 nM. Besides, the viability, T/C (compound 0.0316 µM) was 104% and 106% and 102%. In addition, the viability, T/C (compound 0.1 µM) was 87.3% and 93.7% and 107%. In addition, for the setting “compound 0.316 µM”, the viability, T/C was 96.6% and 105% and 93%. The viability, T/C (compound 1 µM) is 99.8% and 93.9% and 87.2%. For the same compound, the viability, T/C (compound 3.16 µM) was 104% and 103% and 98.8%. Besides, the viability, T/C (compound 10 µM) is 96.2% and 95.4% and 92.5%.
